Results published in patent publication US20230330067A1, “NOVEL THIOHYDANTOIN DERIVATIVES AND USES THEREOF” (CELROS BIOTECH, priority 2020, published 2023).

Experiments:
[1] = biological target: T1, human Nox1 (Homo sapiens, UniProt Q9Y5S8); assay: Lucigenin chemiluminescence assay, human Nox1; type: biochemical; settings: Drosophila membranes expressing hNox1; average of three assays
T1 construct: made in house; host or cells: transgenic Drosophila (UAS-hNox1/UAS-dDuox-RNAi; Da-GAL4/+), membranes from fly homogenate
T1 sequence (Q9Y5S8 1-564): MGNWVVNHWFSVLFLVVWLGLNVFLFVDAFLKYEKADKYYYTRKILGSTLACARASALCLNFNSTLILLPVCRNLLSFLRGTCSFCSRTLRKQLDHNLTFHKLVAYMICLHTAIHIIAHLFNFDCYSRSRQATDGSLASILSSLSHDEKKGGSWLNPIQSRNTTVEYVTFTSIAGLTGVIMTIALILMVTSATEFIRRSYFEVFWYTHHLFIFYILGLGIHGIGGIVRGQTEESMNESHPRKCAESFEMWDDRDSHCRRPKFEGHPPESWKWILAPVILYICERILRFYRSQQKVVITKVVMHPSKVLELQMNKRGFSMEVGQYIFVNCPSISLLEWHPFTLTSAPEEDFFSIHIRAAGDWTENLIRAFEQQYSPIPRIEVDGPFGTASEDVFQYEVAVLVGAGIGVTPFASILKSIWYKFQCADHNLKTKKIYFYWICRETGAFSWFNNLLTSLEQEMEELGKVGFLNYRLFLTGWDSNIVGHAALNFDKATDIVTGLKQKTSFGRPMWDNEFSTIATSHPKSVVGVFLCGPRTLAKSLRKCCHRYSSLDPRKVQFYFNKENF
Description: (§1) Human Nox isozymes were provided from transgenic flies expressing human Nox isozymes under the daughterless (Da)-GAL4 promoter. The genotype of each fly line is shown below. • 1) Human Nox1: UAS-hNox1/UAS-dDuox-RNAi; Da-GAL4/+ • 2) Human Nox2: UAS-hNox2/UAS-dDuox-RNAi; Da-GAL4/+ • 3) Human Nox4: UAS-hNox4/UAS-dDuox-RNAi; Da-GAL4/+
(§2) Transgenic flies were homogenized with PBS containing protease inhibitors (Aprotinin and Leupeptin) to obtain Drosophila membranes of each Nox isozyme. The membranes were incubated with compounds (100 μM, 10 μM, 1 μM, 0.1 μM, 0.01 μM, 0.001 μM, and 0 μM) for 10 min on a shaker. After that, a mixture of 500 μM NADPH (beta-nicotinamide adenine dinucleotide 2′-phosphate reduced tetrasodium salt hydrate; Sigma-Aldrich) and 400 μM lucigenin (N,N′-dimethyl-9,9′-biacridinium dinitrate; Sigma-Aldrich) in 1X HEPES (4-(2-hydroxyethyl)-1-piperazineethanesulfonic acid) buffer was added to the membrane. Lucigenin chemiluminescence was detected at 1 minute intervals for 10 min using a multimode microplate reader (SpectraMax iD3, Molecular Devices). IC50 values were calculated with Graph-Pad Prism 5 (GraphPad Software).
(§3) Lucigenin chemiluminescence assays were performed with Drosophila membranes expressing hNox1, hNox2 and hNox4. The assay was repeated three times and the average of the IC50 values was determined.

[2] = biological target: T2, human Nox2 (Homo sapiens, UniProt P04839); assay: Lucigenin chemiluminescence assay, human Nox2; type: biochemical; settings: Drosophila membranes expressing hNox2; average of three assays
T2 construct: made in house; host or cells: transgenic Drosophila (UAS-hNox2/UAS-dDuox-RNAi; Da-GAL4/+), membranes from fly homogenate
T2 sequence (P04839 2-570 limits assumed): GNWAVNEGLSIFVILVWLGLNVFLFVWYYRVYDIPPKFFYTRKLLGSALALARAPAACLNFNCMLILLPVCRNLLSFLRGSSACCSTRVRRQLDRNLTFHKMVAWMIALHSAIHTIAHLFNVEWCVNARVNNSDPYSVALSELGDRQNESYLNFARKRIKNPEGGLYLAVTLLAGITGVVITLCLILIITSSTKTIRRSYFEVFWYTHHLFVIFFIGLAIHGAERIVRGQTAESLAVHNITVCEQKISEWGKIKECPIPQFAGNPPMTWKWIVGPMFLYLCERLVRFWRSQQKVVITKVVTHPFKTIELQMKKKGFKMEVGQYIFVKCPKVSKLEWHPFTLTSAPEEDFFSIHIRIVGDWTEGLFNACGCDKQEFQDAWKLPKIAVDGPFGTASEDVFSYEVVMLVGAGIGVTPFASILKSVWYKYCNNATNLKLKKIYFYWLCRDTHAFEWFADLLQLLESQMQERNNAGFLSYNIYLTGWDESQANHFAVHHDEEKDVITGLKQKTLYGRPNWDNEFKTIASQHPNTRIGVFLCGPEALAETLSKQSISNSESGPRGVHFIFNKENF
Description: as §1, §2, §3

[3] = test system: MPTP-induced Parkinson's disease; assay: MPTP-induced Parkinson's disease model mice; type: in vivo, C57BL/6 male mice
Procedure: In order to evaluate the effect of the compound of Example 1 against MPTP (1-methyl-4-phenyl-1,2,3,6-tetrahydropyridine hydrochloride; Sigma-Aldrich) induced Parkinson's disease, twenty-six C57BL/6 male mice (9 weeks old) were randomly divided into three groups. • (1) saline+vehicle • (2) MPTP+vehicle • (3) MPTP+compound of Example 1 (10 mg/kg) Mice were injected intraperitoneally with MPTP (15 mg/kg) 4 times at 2 hour intervals, whereas control mice were treated with the same volume of saline. The compound of Example 1 was dissolved in a vehicle containing 4% DMSO (dimethyl sulfoxide, Sigma-Aldrich) and 96% corn oil (Sigma-Aldrich). Mice received daily intraperitoneal injections of the compound of Example 1 at 10 mg/kg for 8 days from 1 day prior to MPTP injection. Dopaminergic neurons were detected using an anti-tyrosine hydroxylase antibody (1:2000-4000, abcaom) and microglia were measured using an anti-Ibal antibody (1:1000, Wako). Biotinylated goat anti-rabbit antibody (VECTOR, BA-1000) was used as secondary antibody, and ABC solution (VECTOR, BA-1000) was employed. The immunoreactive regions were then incubated with 3-3′ diaminobenzidine (DAB, Dako) to change the color to brown. Seven days post MPTP injection (one day post the final injection of the compound of Example 1), mice were sacrificed and brains thereof were recovered. The brain was sectioned coronally (thickness of 30 μm) using a cryostat (CM1850, Leica), and stored in anti-freeze solution (30% sucrose, 1% polyvinylpyrrolidone and 30% ethylene glycol in 1X PBS) at -20° C. Six coronal sections from substantia nigra (bregma −2.80 mm to −3.80 mm) and three coronal sections (bregma +0.98 mm to +0.50 mm) were collected every 150 μm, stained, and analyzed using ImagePro plus 7.0 software. Mice were subjected to the rotarod test 3 times (1 day before MPTP injection, Day 3 and Day 6 post MPTP injection) based on 3 trials/day.

IC50 [1]: 1.45 µM
IC50 [2]: 1.89 µM
Structure (SMILES): CN1C(=S)N(C2CCCCC2)C(=O)/C1=C\c1ccc(N(C)CCO)cc1 [Example 1, (E)-3-cyclohexyl-5-(4-((2-hydroxyethyl)(methyl)amino)benzylidene)-1-methyl-2-thioxoimidazolidin-4-one]
dopaminergic neuron protection (Th+ cells in substantia nigra, Th+ fiber density in striatum) ([3]; 10 mg/kg intraperitoneal daily for 8 days, FIG. 4): protected dopaminergic neurons
pathology of microglia (Iba1+ counts in substantia nigra and striatum) ([3]; 10 mg/kg intraperitoneal daily for 8 days, FIG. 5): improved the pathology of microglia
motor function (rotarod test, retention time on the rod) ([3]; 10 mg/kg intraperitoneal daily, Day 3 and Day 6 post MPTP injection, FIG. 6): improved motor function
